The record followed here is US20200055839A1 (priority 2017, published 2020).

As usually defined, the EC50 is the concentration that produces a half-maximal response.

The subject of the experiment is NL-RLuc virus. Kind of experiment: Inhibition of HIV replication (NL-RLuc virus, luciferase readout in MT-2 cells). The class given is cell-based. Particulars: Human immunodeficiency virus 1, MT2, 120 h, MT-2 cells infected with NL-RLuc virus, 5 days of incubation, 10% FBS, at least 2 experiments. Summed up: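 MT-2 cells infected with NL4-3-derived virus carrying Renilla luciferase in place of part of nef, grown 5 days with serial compound dilutions in RPMI 1640/10% FBS. Virus growth read as luciferase expression. EC50 from median effect equation, at least 2 experiments.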
`Cc1ncc(-c2ccc(OCCc3ccccc3F)cn2)c(N2CCC(C)(C)CC2)c1[C@H](OC(C)(C)C)C(=O)O` [Example 303, (2S)-2-(tert-butoxy)-2-[4′-(4,4-dimethylpiperidin-1-yl)-5-[2-(2-fluorophenyl)ethoxy]-6′-methyl-[2,3′-bipyridine]-5′-yl]acetic acid] had a 50% effective concentration (EC50) of 0.6 nM.
As for `Cc1ncc(-c2ccc(OCCc3cccc(F)c3)cn2)c(N2CCC(C)(C)CC2)c1[C@H](OC(C)(C)C)C(=O)O` [Example 304, (2S)-2-(tert-butoxy)-2-[4′-(4,4-dimethylpiperidin-1-yl)-5-[2-(3-fluorophenyl)ethoxy]-6′-methyl-[2,3′-bipyridine]-5′-yl]acetic acid], the figure is 0.5 nM.
To `Cc1ncc(-c2ccc(OCCc3c(F)cccc3Cl)cn2)c(N2CCC(C)(C)CC2)c1[C@H](OC(C)(C)C)C(=O)O` [Example 305, (2S)-2-(tert-butoxy)-2-{5-[2-(2-chloro-6-fluorophenyl)ethoxy]-4′-(4,4-dimethylpiperidin-1-yl)-6′-methyl-[2,3′-bipyridine]-5′-yl}acetic acid] belongs 1 nM.
Compound `Cc1ncc(-c2ccc(OCCc3ccc(F)cc3F)cn2)c(N2CCC(C)(C)CC2)c1[C@H](OC(C)(C)C)C(=O)O` [Example 306, (2S)-2-(tert-butoxy)-2-{5-[2-(2,4-difluorophenyl)ethoxy]-4′-(4,4-dimethylpiperidin-1-yl)-6′-methyl-[2,3′-bipyridine]-5′-yl}acetic acid] had an EC50 of 0.6 nM.
As for `Cc1ncc(-c2ccc(OCCc3ccc(F)c(Cl)c3)cn2)c(N2CCC(C)(C)CC2)c1[C@H](OC(C)(C)C)C(=O)O` [Example 307, (2S)-2-(tert-butoxy)-2-{5-[2-(3-chloro-4-fluorophenyl)ethoxy]-4′-(4,4-dimethylpiperidin-1-yl)-6′-methyl-[2,3′-bipyridine]-5′-yl}acetic acid], the figure is 1 nM.
To `Cc1ncc(-c2ccc(OCCc3cccc(Cl)c3)cn2)c(N2CCC(C)(C)CC2)c1[C@H](OC(C)(C)C)C(=O)O` [Example 308, (2S)-2-(tert-butoxy)-2-{5-[2-(3-chlorophenyl)ethoxy]-4′-(4,4-dimethylpiperidin-1-yl)-6′-methyl-[2,3′-bipyridine]-5′-yl}acetic acid] belongs 0.7 nM; to `Cc1ncc(-c2ccc(OCCc3ccc(Cl)cc3)cn2)c(N2CCC(C)(C)CC2)c1[C@H](OC(C)(C)C)C(=O)O` [Example 309, (2S)-2-(tert-butoxy)-2-{5-[2-(4-chlorophenyl)ethoxy]-4′-(4,4-dimethylpiperidin-1-yl)-6′-methyl-[2,3′-bipyridine]-5′-yl}acetic acid], 0.4 nM; to `Cc1ncc(-c2ccc(OCCc3ccc(F)cc3Cl)cn2)c(N2CCC(C)(C)CC2)c1[C@H](OC(C)(C)C)C(=O)O` [Example 310, (2S)-2-(tert-butoxy)-2-{5-[2-(2-chloro-4-fluorophenyl)ethoxy]-4′-(4,4-dimethylpiperidin-1-yl)-6′-methyl-[2,3′-bipyridine]-5′-yl}acetic acid], 0.5 nM.
`Cc1ncc(-c2ccc(O[C@@H](C)C(C)C)cn2)c(N2CCC(C)(C)CC2)c1[C@H](OC(C)(C)C)C(=O)O` [Example 311, (2S)-2-(tert-butoxy)-2-[4′-(4,4-dimethylpiperidin-1-yl)-6′-methyl-5-{[(2S)-3-methylbutan-2-yl]oxy}-[2,3′-bipyridine]-5′-yl]acetic acid] had a concentration giving a half-maximal response (EC50) of 1 nM.
In the case of `Cc1ncc(-c2ccc(OCC(C)C)cn2)c(N2CCC(C)(C)CC2)c1[C@H](OC(C)(C)C)C(=O)O` [Example 312, (2S)-2-(tert-butoxy)-2-[4′-(4,4-dimethylpiperidin-1-yl)-6′-methyl-5-(2-methylpropoxy)-[2,3′-bipyridine]-5′-yl]acetic acid], the EC50 amounted to 1 nM.
As for `CCCCOc1ccc(-c2cnc(C)c([C@H](OC(C)(C)C)C(=O)O)c2N2CCC(C)(C)CC2)nc1` [Example 313, (2S)-2-(tert-butoxy)-2-[5-butoxy-4′-(4,4-dimethylpiperidin-1-yl)-6′-methyl-[2,3′-bipyridine]-5′-yl]acetic acid], the figure is 1 nM.
